Source: patent publication US20140038822A1, “USE OF SUBSTITUTED SPIROCYCLIC SULFONAMIDOCARBOXYLIC ACIDS, CARBOXYLIC ESTERS THEREOF, CARBOXAMIDES THEREOF AND CARBONITRILES THEREOF OR SALTS THEREOF FOR ENHANCEMENT OF STRESS TOLERANCE IN PLANTS” (BAYER INTELLECTUAL PROPERTY GMBH, priority 2010, published 2014)

Tests used:
Format in all cases: in vivo
BRSNS (Brassica napus) = assay: Drought stress test on crop plants in greenhouse, spray application, efficacy vs untreated stressed control (BRSNS); conditions: dosage 250 g/ha, mean of three results
Protocol: (§1) Seeds of monocotyledonous and dicotyledonous crop plants were placed in sandy loam in wood-fiber pots, covered with soil and cultivated in a greenhouse under good growth conditions. The test plants were treated at the early leaf stage (BBCH10 BBCH13). To ensure uniform water supply before commencement of stress, the potted plants were supplied with the maximum amount of water immediately beforehand by dam irrigation and, after application, transferred in plastic inserts in order to prevent subsequent, excessively rapid drying. The inventive compounds, formulated in the form of wettable powders (WP), wettable granules (WG), suspension concentrates (SC) or emulsion concentrates (EC), were sprayed onto the green parts of the plants as an aqueous suspension at an equivalent water application rate of […] with addition of 0.2% wetting agent (agrotin). Substance application is followed immediately by stress treatment of the plants (cold or drought stress). For cold stress treatment, the plants were kept under the following controlled conditions: […]
(§2) After the recovery phase had ended, the intensities of damage were rated in visual comparison to untreated, unstressed controls of the same age (in the case of drought stress) or the same growth stage (in the case of cold stress). The intensity of damage was first assessed as a percentage (100%=plants have died, 0%=like control plants). […]

ZEAMX (Zea mays) = assay: Drought stress test on crop plants in greenhouse, spray application, efficacy vs untreated stressed control (ZEAMX); conditions: dosage 250 g/ha, efficacy = percentage reduction in the intensity of damage vs untreated stressed control, mean of three results
Protocol: as §1, §2

[1] = system: TRZAS (Triticum aestivum); assay: Drought stress test on crop plants in greenhouse, spray application, efficacy vs untreated stressed control (TRZAS); conditions: dosage 25 g/ha, efficacy = percentage reduction in the intensity of damage vs untreated stressed control, mean of three results
Protocol: as §1, §2

COC(=O)C1(NS(=O)(=O)c2ccc(OC)cc2)CCC(OC)CC1 (stereo not drawn) [I.37-87, Methyl 4-methoxy-1-{[(4-methoxyphenyl)sulfonyl]amino}-cyclohexanecarboxylate]
>5%: EF (BRSNS): Efficacy = percentage reduction in the intensity of damage (BRSNS (Brassica napus)) | EF (ZEAMX) (ZEAMX (Zea mays)) | Efficacy (TRZAS) [1]
